Laboratory results taken from patent US11236129B2, “IL-17A binding peptides and medical uses thereof” (Dompe' Farmaceutici S.P.A., priority 2018, dated 2022).
“Also recorded” adds a separate entry of the source. Like-named read-outs stand apart in the source and are kept apart here. Residues, ends and D or L forms follow the SMILES beside them.

How the values were obtained:
[1] = assay type: physicochemical; conditions: pH 7.8
Summary of the method: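 Peptides dissolved in phosphate buffer pH 7.8 as 10 mM stocks (more dilute for less soluble ones) and stored at 25 °C. Content measured by reversed-phase UHPLC (C18, 0.5% formic acid water/acetonitrile gradient, DAD 220-400 nm, ESI-MS ion trap) after 1:100 dilution to 100 μM, against 100 μM standards, at T0, 3 days and 1 week.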

[2] = molecular target: IL-17RA/IL17RC dimerization induced by IL-17A (Homo sapiens, UniProt Q16552); experiment: IL-17RA/IL17RC dimerization assay in response to IL-17A (PathHunter Cytokine Receptor Assay); assay type: cell-based; conditions: IL-17A at EC80; read-out: IC50 in IL-17RA/IL7RC dimerization assay
Summary of the method: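 Receptor dimerization was read as chemiluminescence from complemented β-galactosidase after IL-17A at EC80 concentration for 6–16 h at 37 °C. Peptides were added 60 min before agonist, at 37 °C or room temperature, with 1% vehicle. Percent inhibition used the EC80-stimulated and vehicle wells as references.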

[3] = tested on: human corneal epithelial cells (hCEPIC); experiment: Permeability test across stratified human corneal epithelial cells; assay type: in vitro ADME
Description: (§1) The objective of this study was to evaluate the apparent permeability coefficient (Papp) value of the peptides across stratified human corneal epithelial cells. All peptides were tested at 50 μM in duplicate.
(§2) In particular, human corneal epithelial cells (hCEPIC) were stratified on Transwell cell culture inserts (Corning, N.Y., USA). The permeation experiments were performed taking samples from receiver chambers at 5, 30, 60 minutes time points and from donor chambers at the same time points. Each aliquot collected was analyzed by HPLC instrument (Knauer) equipped with C18 Vertex Plus Column (Knauer) thermostatically controlled at 40° C. The rate (apparent permeability coefficient, Papp) of the study compounds was calculated and compared to the Papp values of the low and high permeability markers, 6-carboxyfluorescein and Rhodamine B, respectively.
(§3) The apparent permeability coefficient (Papp) was calculated according to Equation: Papp=(I/A*C0)(dM/dt)
(§4) where dM/dt is the flux (nanomoles per second) across the cell layers;
(§5) A (square centimeters) is the exposed surface area of the insert membrane;
(§6) C0 is the initial drug concentration (micromolar) in the donor compartment at t=0 (Xiang et al., Drug Metab Dispos. 2009 May; 37(5):992-8.

[4] = as above; assay type: in vitro ADME
Description: as §1, §2, §3, §4, §5, §6

[5] = tested on: Immortalized Human Corneal Epithelial cell line (I-HCEC); experiment: In vitro evaluation of expression of inflammatory cytokines in I-HCEC (real-time PCR); assay type: cell-based; conditions: 0.01-500 μM, 24 hours
mouse IL-17A = molecular target: T1, mouse IL-17A (Mus musculus, UniProt Q62386); experiment: Peptide-IL-17A affinity test (SPR); assay type: binding
T1 sequence (Q62386 26-158): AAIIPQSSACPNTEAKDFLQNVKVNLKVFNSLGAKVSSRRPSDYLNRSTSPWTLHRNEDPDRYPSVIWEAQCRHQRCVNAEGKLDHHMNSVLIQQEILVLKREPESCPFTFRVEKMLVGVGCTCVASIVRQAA
Description: The peptide of the prior art HAP (SEQ ID NO:1) and peptide of SEQ ID NO:2 were tested for affinity for mIL-17A, as described below. For the immobilization of mouse IL-17A protein, amine coupling chemistry was used. […] Covalent immobilization of mIL17 results in stable attachment of 3000 RU of ligand to the surface. […] The molecules were diluted at different concentrations (from 62.5 to 1000 nM) in HBS-EP buffer and injected on the sensorchip for 4 minutes and allowed to dissociate for 5 minutes. After each run, the sensorchip was regenerated by 2 M NaCl injection. Based on the sensorgrams (FIG. 1, panel A) and using the BIAevaluation software, the Scatchard analysis of the RU values at equilibrium allowed to determine an affinity constant as a function of the analyte concentration in solution (FIG. 6, panel B).

[6] = Isoelectric point, log D and log P (SiriusT3); assay type: physicochemical; conditions: for IP (isoelectric point): 25±1° C., 0.15 M KCl
IL-17A = molecular target: T2, IL-17A (Homo sapiens, UniProt Q16552); conditions: psoriasis, clinical trials; cited from earlier work
T2 construct: host or cells: psoriasis patients (endogenous IL-17A)

[7] = tested on: human differentiated TH17 cells; experiment: Cytokine and metalloproteinase secretion by human differentiated and activated TH17 cells; assay type: cell-based; conditions: 24 h after stimulation, supernatant
Source text: To evaluate the effect of the peptides of the invention on the target cells responsible for inflammation in ophtalmic or dermatological pathologies, we tested the ability of the peptide of SEQ ID NO: 18 to inhibit in vitro pro-inflammatory cytokines and metalloproteinases secretion by human Th17 cells.
Human primary CD4 T-cells were differentiated into Th17 cells in vitro by culturing the cells in Th17 differentiation medium for 10 days. In details, purified human peripheral blood CD4 T-cells were cultured in Th-17 differentiation medium (CellXVivo Human Th17, Tocris) per manufacturer's instructions. Briefly: 96-well tissue culture plates were coated with anti-CD3 and CD28 agonistic antibodies. Cells were counted via trypan blue exclusion and suspended at a concentration of 1E5 cells/ml in Th-17 differentiation medium. 0.2 mL of this suspension was plated into individual wells of a 96-well plate. Cells were incubated at 37° C. with 5% CO2 for 10 days, with media replaced as needed. Following 10-day Cell Differentiation, the peptides synthetized in Example 1, such as the peptide of Seq. ID No 18, were diluted to the appropriate concentration in CGM (cell growth medium, XVivo-15, Lonza). Cell plate was centrifuged at 300×g for 5 min, and Th17 differentiation medium was removed.
Following differentiation, the cells were stimulated with both an activation cocktail containing Phorbol 12-myristate 13-acetate and lonomycin in the presence of varying concentrations of test articles.
(§7) At 24 h following stimulation, culture supernatants were analyzed for expression of IL-17, IL-6, IL-23, MMP3 and examined for viability using the fluorescence viability dye, Alamar blue. The CD4 cells secreted high levels of IL-17A in response to stimulation with an activation cocktail, indicating successful differentiation into Th17 cells. Additionally, stimulated cells secreted IL-6, IL23 and MMP3.
Supernatant was removed and replaced with 200 μL of diluted peptide or vehicle (CGM+DMSO diluted as with TI concentration) in appropriate groups. Cells were incubated with peptide test items for 1 hour before stimulation. The following stimulation solutions were generated: 10× Cell Activation Cocktail: Diluted from 500× to 10× working solution in CGM. 22 μL of appropriate stimulants were added to wells 1 hr after TI addition. Finally, 25 μL of Alamar blue reagent (10×) was added to each well 20 hours after stimulant (4 hrs prior to 24 hr serum collection) to determine cell viability. 24 hrs After Stimulant, Alamar blue fluorescence was measured per manufacturer's instructions. […] Expression levels of IL-6, IL-17, and IL-23 as well as MMP3 in 24 hour stimulated culture supernatants was evaluated using a Luminex Multiplex Platform on a MAGPIX instrument.

human TH17 cells = experiment: Viability of human TH17 cells (Alamar blue); assay type: cell-based
Description: as §7
Supernatant was removed and replaced with 200 μL of diluted peptide or vehicle (CGM+DMSO diluted as with TI concentration) in appropriate groups. Cells were incubated with peptide test items for 1 hour before stimulation. The following stimulation solutions were generated: 10× Cell Activation Cocktail: Diluted from 500× to 10× working solution in CGM. 22 μL of appropriate stimulants were added to wells 1 hr after TI addition. Finally, 25 μL of Alamar blue reagent (10×) was added to each well 20 hours after stimulant (4 hrs prior to 24 hr serum collection) to determine cell viability. 24 hrs After Stimulant, Alamar blue fluorescence was measured per manufacturer's instructions. Remaining Supernatants were collected for subsequent multiplex protein analyses. Expression levels of IL-6, IL-17, and IL-23 as well as MMP3 in 24 hour stimulated culture supernatants was evaluated using a Luminex Multiplex Platform on a MAGPIX instrument.

[8] = octanol/ISA water, read-out: logP
[9] = pH 7.4, pH 7.4, octanol/ISA water, read-out: Log D (7.4)

T2 sequence (Q16552 24-155): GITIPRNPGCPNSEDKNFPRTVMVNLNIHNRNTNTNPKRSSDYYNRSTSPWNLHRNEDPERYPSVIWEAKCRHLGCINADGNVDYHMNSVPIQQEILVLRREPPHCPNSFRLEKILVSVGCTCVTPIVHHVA
IL-17RA/IL17RC dimerization induced by IL-17A, sequence (Q16552 24-155): as above

solubility [1]	IC50 [2]	IP (isoelectric point) [6]	logP [6, 8]	logD [6, 9]	Molecule	Papp ([4]; Permeability (Papp ± SE))	Papp ([4]; Permeability (Papp))	patient population with severity of the disease reduced by at least 75% (PASI75) (IL-17A)	other results
> 10 mM	< 200 nM	5.14	0.99	-0.56	CC[C@H](C)[C@H](NC(=O)[C@H](Cc1c[nH]c2ccccc12)NC(=O)[C@H](CC(=O)O)NC(=O)[C@H](Cc1c[nH]c2ccccc12)NC(=O)[C@H](CC(C)C)NC(=O)[C@H](CC(=O)O)NC(=O)[C@H](C)NC(=O)[C@@H]1CCCN1C(=O)[C@@H](NC(=O)[C@@H](NC(=O)[C@@H](NC(=O)[C@H](Cc1c[nH]cn1)NC(=O)[C@@H](NC(C)=O)C(C)C)C(C)C)[C@@H](C)O)[C@@H](C)CC)C(=O)N[C@@H](CC(N)=O)C(=O)N[C@@H](CCCCN)C(N)=O [SEQ ID NO: 2] (Ac-VHVTIPADLWDWINK-NH2)	28.8 ×10⁻⁶ cm/s	28.9 ×10⁻⁶ cm/s	–	Permeability (Papp ± SE) [3]: 28.86; permeability compared to high permeability standard Rhodamine B (in words) [3]: good permeability; expression of the measured inflammatory cytokines (IL-8, IL-6, TNF-α) [5]: does not change the expression; also recorded: does not show any effect; affinity for mouse IL-17A relative to SEQ ID NO: 1 (mouse IL-17A; SPR): 28 fold; Kd (mouse IL-17A; immobilized mIL-17A, 62.5 to 1000 nM peptide, read-out: Kdeq (SPR)): 130 nM
–	–	–	–	–	secukinumab	–	–	80%	–
≥ 0.05 mM	< 400 nM	3.55	1.89	-3.79	CC[C@H](C)[C@H](NC(=O)[C@H](Cc1c[nH]c2ccccc12)NC(=O)[C@H](CCC(=O)O)NC(=O)[C@H](Cc1ccc(O)cc1)NC(=O)[C@H](CC(C)C)NC(=O)[C@H](CC(=O)O)NC(=O)[C@H](C)NC(=O)[C@@H]1CCCN1C(=O)[C@@H](NC(=O)[C@@H](NC(=O)[C@@H](NC(=O)[C@H](CCSC)NC(=O)[C@@H](NC(C)=O)C(C)C)C(C)C)[C@@H](C)O)[C@@H](C)CC)C(=O)N[C@@H](CCC(=O)O)C(=O)N[C@@H](CCC(=O)O)C(N)=O [SEQ ID NO: 18] (Ac-VMVTIPADLYEWIEE-NH2)	–	–	–	secretion of IL-6 [7]: significantly reduce; secretion of IL-17A [7]: significantly reduce; secretion of IL-23 [7]: significantly reduce; secretion of MMP3 [7]: significantly reduce; cell viability (human TH17 cells): did not impair cell viability
–	–	–	–	–	ixekizumab	–	–	80%	–

Molecule	solubility [1]	IC50 [2]	IP (isoelectric point) [6]	logP [6, 8]	logD [6, 9]	Papp ([4]; Permeability (Papp ± SE))	Papp ([4]; Permeability (Papp))	patient population with severity of the disease reduced by at least 75% (PASI75) (IL-17A)	other results
CC[C@H](C)[C@H](NC(C)=O)C(=O)N[C@@H](Cc1c[nH]cn1)C(=O)N[C@H](C(=O)N[C@H](C(=O)N[C@H](C(=O)N1CCC[C@H]1C(=O)N[C@@H](C)C(=O)N[C@@H](CC(=O)O)C(=O)N[C@@H](CC(C)C)C(=O)N[C@@H](Cc1c[nH]c2ccccc12)C(=O)N[C@@H](CC(=O)O)C(=O)N[C@@H](Cc1c[nH]c2ccccc12)C(=O)N[C@H](C(=O)N[C@@H](CC(N)=O)C(=O)N[C@@H](CCCCN)C(N)=O)[C@@H](C)CC)[C@@H](C)CC)[C@@H](C)O)C(C)C [SEQ ID NO: 1, reference compound] (Ac-IHVTIPADLWDWINK-NH2)	> 10 mM	–	–	–	–	19.3 ×10⁻⁶ cm/s	19.3 ×10⁻⁶ cm/s	–	Kd (mouse IL-17A): 3700 nM; logP ([6]; logP): -5.98; logD ([6]; pH 7.4, Log D (7.4)): -3.68
